Reference: article PMC4111571 (Pharmaceutical research, 2012)

Assay: Caco-2 cell monolayer bidirectional transport study
Type: in vitro ADME
Details: human, Caco-2, pH 7.4

Papp A→B at 2 h, 100 µM: 41.6 ± 2.4 ×10⁻⁶ cm/s
Papp B→A at 2 h, 100 µM: 21.3 ± 0.7 ×10⁻⁶ cm/s
efflux ratio at 2 h, 100 µM: 0.51
SMILES: CC(C)NCC(O)COc1cccc2ccccc12 (stereo not drawn) [Propranolol]
